# Values quoted from earlier work in article PMC7797166 (Journal of thoracic oncology : official publication of the …, 2020).
# Where two headings read alike, the source gives them in different places.
# Test system: T cell
# Conditions: ref Li et al[31], cited from earlier work
Sequence,tetramer assay (HLA-A*11:01),tetramer assay (HLA-A*31:01)
KITDFGRAK,negative,
HVKITDFGR,,positive
